Reference: US20230330229A1, “METHODS FOR IMAGE-GUIDED RADIOTHERAPY” (UNIVERSITE CLAUDE BERNARD LYON 1, priority 2020, published 2023)

What was measured:
[1] = magnetic field of 3 Tesla, literature reference; cited from earlier work
brain metastases = test: MRI signal enhancement in brain metastases (Nano-Rad phase I-b trial, 3 Tesla, 3D T1-weighted); type: in vivo, human; settings: D0, 15 min after injection, 0.1 mmol/kg i.v., metastases >1 cm
From the text: This study is part of a prospective dose escalation phase I-b clinical trial to evaluate the tolerance of the intravenous administration of radiosensitizing AGuIX nanoparticles in combination with whole brain radiotherapy for the treatment of brain metastases. The Nano-Rad trial (Radiosensitization of Multiple Brain Metastases Using AGuIX Gadolinium Based Nanoparticles) was registered as NCT02820454. Here, we report the findings of the MRI protocol applied to the 15 recruited patients. […]
MRI analyses were performed using an in-house computer program called MP3 (https://github.com/nifm-gin/MP3) developed by the GIN Laboratory (Grenoble, France) and running under Matlab® software. Image analyses include counting and measurements of metastases, quantification of contrast enhancement, relaxation times and concentration of nanoparticles. […] The MRI enhancement, expressed in percentage, was defined as the ratio of the MRI signal amplitude post contrast agent administration over the MRI signal amplitude pre contrast agent administration; the MRI signal amplitude being measured in the 3D T1-weighted image dataset. […]

[2] = Detection of solutions in Eppendorf by MRIdian MR-linac at 0.35 T; settings: spin echo, solutions in PPI water
Method: ViewRay Linac MRI displaying magnetic field of 0.35 T (MRIdian MR-linac, ViewRay Inc., Oakwood, USA) (S. Klüter, Clinical and Translational Radiation Oncology, 2019), samples with different concentrations in gadolinium were tested and compared to Multihance (Bracco) using the Torso coil (two surface flexible 6-channel coils array).
The ViewRay MRIdian system is clinically used for external radiotherapy purpose, thus it is a very appropriate device dedicated to the use of the AGuIX. A 2D coronal spin echo sequence was used: TR=400 ms, TE=20 ms, Flip Angle=90°, Bandwidth=57. Hz/Px, Matrix=512×512, Slice Thickness=3 mm, Field Of View=350×350×263 mm, Number of Averages=5. The total acquisition time was 12:30 minutes.
Solutions of multihance and AGuIX were prepared by dilution in PPI water from stock solutions of 0.5 mol·L^−1 and 100 g·L^−1 respectively 1 hour before imaging and placed in Eppendorf.

| SMILES | r1 per Gd^3+ ion [1] | MRI enhancement averaged over all measurable metastases (brain metastases) | Detection sensitivity (lowest detected [Gd^3+]) [2] |
| --- | --- | --- | --- |
| CNC[C@H](O)[C@@H](O)[C@H](O)[C@H](O)CO.O=C([O-])CN1CCN(CC(=O)[O-])CCN(CC(=O)O)CCN(CC(=O)[O-])CC1.[Gd+3] [Dotarem, gadoterate meglumine] | 3.5 mM⁻¹ s⁻¹ | 182.9±116.2% | – |
| O=C([O-])CN(CCN(CC(=O)[O-])CC(=O)[O-])CCN(CC(=O)[O-])C(COCc1ccccc1)C(=O)[O-].[Gd+3].[H+].[H+] (stereo not drawn) [Multihance, gadobenic acid] | – | – | 25 µM |
